Data reported in ChEMBL document CHEMBL5500396, “Discovery, Multiparametric Optimization, and Solid-State Driven Identification of CHF-6550, a Novel Soft Dual Pharmacology Muscarinic Antagonist and β2 Agonist (MABA) for the Inhaled Treatment of Respiratory Diseases” (J Med Chem, 2024).

What was measured:
[1] = molecular target: Muscarinic acetylcholine receptor M3 (Cavia porcellus, UniProt Q8VH26); assay: Antagonist activity at M3 receptor in male albino Dunkin-Hartley guinea pig trachea assessed as inhibition of carbachol-induced smooth muscle contraction in presence of propranolol
Sequence of Muscarinic acetylcholine receptor M3 (Cavia porcellus, UniProt Q8VH26) (Q8VH26 whole entry): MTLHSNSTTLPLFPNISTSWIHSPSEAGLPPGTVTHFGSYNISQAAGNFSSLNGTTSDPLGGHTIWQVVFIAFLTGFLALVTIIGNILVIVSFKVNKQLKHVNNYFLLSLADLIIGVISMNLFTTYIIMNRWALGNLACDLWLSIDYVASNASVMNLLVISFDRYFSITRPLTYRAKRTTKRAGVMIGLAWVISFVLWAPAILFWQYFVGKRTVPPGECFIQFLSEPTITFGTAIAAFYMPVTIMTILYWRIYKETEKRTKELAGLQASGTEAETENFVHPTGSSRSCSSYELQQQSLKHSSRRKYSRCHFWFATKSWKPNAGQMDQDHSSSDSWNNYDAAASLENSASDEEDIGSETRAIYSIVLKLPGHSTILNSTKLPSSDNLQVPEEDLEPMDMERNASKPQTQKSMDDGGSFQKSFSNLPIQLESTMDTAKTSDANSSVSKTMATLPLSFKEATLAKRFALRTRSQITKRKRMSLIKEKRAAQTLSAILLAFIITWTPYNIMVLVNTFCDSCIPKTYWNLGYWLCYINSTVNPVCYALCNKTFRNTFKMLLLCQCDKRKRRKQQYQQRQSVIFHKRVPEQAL

[2] = molecular target: Beta-2 adrenergic receptor (Cavia porcellus, UniProt Q8K4Z4); assay: Agonist activity at beta2 adrenoceptor in male albino Dunkin-Hartley guinea pig trachea assessed as inhibition of histamine induced smooth muscle contraction
Sequence of Beta-2 adrenergic receptor (Cavia porcellus, UniProt Q8K4Z4) (Q8K4Z4 whole entry): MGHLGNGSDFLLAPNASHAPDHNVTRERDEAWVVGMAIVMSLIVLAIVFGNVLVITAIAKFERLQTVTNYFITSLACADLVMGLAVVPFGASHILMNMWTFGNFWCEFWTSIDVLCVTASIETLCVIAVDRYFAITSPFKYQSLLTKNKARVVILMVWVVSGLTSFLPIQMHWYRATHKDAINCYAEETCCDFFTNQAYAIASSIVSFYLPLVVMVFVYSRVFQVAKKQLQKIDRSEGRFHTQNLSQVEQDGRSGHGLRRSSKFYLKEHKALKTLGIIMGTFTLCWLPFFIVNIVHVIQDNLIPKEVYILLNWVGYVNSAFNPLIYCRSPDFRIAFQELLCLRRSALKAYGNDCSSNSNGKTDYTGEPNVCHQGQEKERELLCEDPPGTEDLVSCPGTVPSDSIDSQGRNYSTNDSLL

[3] = system: Trachea; assay: Inhibition of carbachol-induced smooth muscle contraction in male albino Dunkin-Hartley guinea pig trachea; details: Cavia porcellus, read-out: pIC50 (converted)
[4] = system: Cavia porcellus; assay: Inhibition of histamine induced bronchoconstriction in male albino Dunkin-Hartley guinea pig model at 3 nmol/kg, IT(Intratracheal) preadministered with compound followed by histamine addition at 5 to 30 mins and measured 1 hrs post compound treatment relative to control; details: read-out: INH
[5] = system: Cavia porcellus; assay: Inhibition of acetylcholine induced bronchoconstriction in male albino Dunkin-Hartley guinea pig model at 1 nmol/kg, IT(Intratracheal) preadministered with compound followed by acetylcholine addition at 5 to 30 mins and measured 1 hrs post compound treatment relative to control; details: read-out: INH
[6] = system: Cavia porcellus; assay: Inhibition of acetylcholine induced bronchoconstriction in male albino Dunkin-Hartley guinea pig model at 3 nmol/kg, IT(Intratracheal) preadministered with compound followed by acetylcholine addition at 5 to 30 mins and measured 1 hrs post compound treatment relative to control; details: read-out: INH
[7] = system: Cavia porcellus; assay: Inhibition of acetylcholine induced bronchoconstriction in male albino Dunkin-Hartley guinea pig model at 3 nmol/kg, IT(Intratracheal) preadministered with compound followed by acetylcholine addition at 5 to 30 mins and measured 24 hrs post compound treatment relative to control; details: read-out: INH
[8] = Protein binding in human plasma at 5 uM incubated for 4 hrs by LC-MS/MS analysis
[9] = Protein binding in rat plasma at 5 uM incubated for 4 hrs by LC-MS/MS analysis
[10] = molecular target: Muscarinic acetylcholine receptor M3 (Homo sapiens, UniProt P20309)
Sequence of Muscarinic acetylcholine receptor M3 (Homo sapiens, UniProt P20309) (P20309 whole entry): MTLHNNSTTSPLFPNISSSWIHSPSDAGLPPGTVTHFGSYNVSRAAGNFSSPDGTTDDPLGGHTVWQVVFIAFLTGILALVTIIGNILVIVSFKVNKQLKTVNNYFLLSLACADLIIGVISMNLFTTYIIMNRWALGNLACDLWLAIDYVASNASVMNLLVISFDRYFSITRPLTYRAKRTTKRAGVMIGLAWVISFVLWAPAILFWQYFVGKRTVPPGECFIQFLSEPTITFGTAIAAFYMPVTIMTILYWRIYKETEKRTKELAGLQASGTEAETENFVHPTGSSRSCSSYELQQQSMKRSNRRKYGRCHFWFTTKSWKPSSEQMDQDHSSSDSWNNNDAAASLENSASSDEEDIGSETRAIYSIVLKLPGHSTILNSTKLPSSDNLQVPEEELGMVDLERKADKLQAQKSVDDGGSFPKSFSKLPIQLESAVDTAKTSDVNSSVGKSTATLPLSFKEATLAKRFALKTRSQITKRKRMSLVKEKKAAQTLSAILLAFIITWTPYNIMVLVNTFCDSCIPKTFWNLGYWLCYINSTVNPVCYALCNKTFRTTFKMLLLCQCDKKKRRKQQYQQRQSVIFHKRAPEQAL
Description: Displacement of Scopolamine methyl chloride,[N-methyl-3H] from human muscarinic M3 receptor assessed as inhibition constant incubated for 2 hrs by Microbeta scintillation counter

[11] = molecular target: Beta-2 adrenergic receptor (Homo sapiens, UniProt P07550)
Sequence of Beta-2 adrenergic receptor (Homo sapiens, UniProt P07550) (P07550 whole entry): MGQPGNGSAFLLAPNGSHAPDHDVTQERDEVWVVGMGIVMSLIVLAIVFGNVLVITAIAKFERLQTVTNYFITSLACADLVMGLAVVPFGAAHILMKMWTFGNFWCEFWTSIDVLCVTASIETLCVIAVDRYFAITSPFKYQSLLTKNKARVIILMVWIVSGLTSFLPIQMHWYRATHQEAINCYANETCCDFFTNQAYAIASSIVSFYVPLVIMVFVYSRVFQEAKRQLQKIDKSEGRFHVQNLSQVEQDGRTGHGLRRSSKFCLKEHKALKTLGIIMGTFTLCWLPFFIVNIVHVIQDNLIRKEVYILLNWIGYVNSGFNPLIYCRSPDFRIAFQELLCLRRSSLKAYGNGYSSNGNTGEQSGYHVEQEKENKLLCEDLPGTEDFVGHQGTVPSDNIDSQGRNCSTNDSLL
Description: Displacement of [125I]-Cyanopindolol from human beta2 adrenoceptor assessed as inhibition constant incubated for 1 hrs by Microbeta scintillation counter

[12] = in vitro; details: guinea pig, lung S9 fraction
Description: Stability in guinea pig lung S9 fraction assessed as half-life at 1 uM incubated for 60 mins by LC-MS/MS analysis

[13] = in vitro; details: human, hepatocytes
Description: Metabolic stability in human hepatocytes assessed as clearance measured per 10^6 cells at 1 uM incubated for 90 mins by LC-MS/MS analysis

[14] = in vitro; details: rat, hepatocytes
Description: Metabolic stability in rat hepatocytes assessed as clearance measured per 10^6 cells at 1 uM incubated for 90 mins by LC-MS/MS analysis

[15] = in vitro; details: human, lung S9 fraction
Description: Stability in human lung S9 fraction assessed as half-life at 1 uM incubated for 60 mins by LC-MS/MS analysis

[16] = in vitro; details: rat, lung S9 fraction
Description: Stability in rat lung S9 fraction assessed as half-life at 1 uM incubated for 60 mins by LC-MS/MS analysis

[17] = in vitro; details: human, plasma
Description: Stability in human plasma assessed as half-life at 5 uM incubated for 120 mins by LC-MS/MS analysis

[18] = in vitro; details: rat, plasma
Description: Stability in rat plasma assessed as half-life at 5 uM incubated for 120 mins by LC-MS/MS analysis

[19] = in vitro; details: guinea pig, plasma
Description: Stability in guinea pig plasma assessed as half-life at 5 uM incubated for 120 mins by LC-MS/MS analysis

[20] = species on record: Cavia porcellus; assay: animal or person; details: albino Dunkin-Hartley, 1 h, read-out: INH
Description: Inhibition of acetylcholine induced bronchoconstriction in male albino Dunkin-Hartley guinea pig model at 3 nmol/kg, IT(Intratracheal) preadministered with compound followed by acetylcholine addition at 5 to 30 mins in presence of ICI-118551 and measured 1 hrs post compound treatment relative to control

[21] = system: Cavia porcellus; assay: Inhibition of histamine induced bronchoconstriction in male albino Dunkin-Hartley guinea pig model at 0.3 nmol/kg, IT(Intratracheal) preadministered with compound followed by histamine addition at 5 to 30 mins and measured 1 hrs post compound treatment relative to control; details: read-out: INH
[22] = system: Cavia porcellus; assay: Inhibition of histamine induced bronchoconstriction in male albino Dunkin-Hartley guinea pig model at 1 nmol/kg, IT(Intratracheal) preadministered with compound followed by histamine addition at 5 to 30 mins and measured 1 hrs post compound treatment relative to control; details: read-out: INH
[23] = system: Cavia porcellus; assay: Inhibition of acetylcholine induced bronchoconstriction in male albino Dunkin-Hartley guinea pig model at 0.3 nmol/kg, IT(Intratracheal) preadministered with compound followed by acetylcholine addition at 5 to 30 mins and measured 1 hrs post compound treatment relative to control; details: read-out: INH
[24] = system: Cavia porcellus; assay: Inhibition of histamine induced bronchoconstriction in male albino Dunkin-Hartley guinea pig model at 1 nmol/kg, IT(Intratracheal) preadministered with compound followed by histamine addition at 5 to 30 mins and measured 24 hrs post compound treatment relative to control; details: read-out: INH
[25] = system: Cavia porcellus; assay: Inhibition of acetylcholine induced bronchoconstriction in male albino Dunkin-Hartley guinea pig model at 1 nmol/kg, IT(Intratracheal) preadministered with compound followed by acetylcholine addition at 5 to 30 mins and measured 24 hrs post compound treatment relative to control; details: read-out: INH
[26] = Metabolic stability in rat hepatocytes assessed as parent compound remaining at 10 uM incubated for 60 mins by LC-MS/MS analysis
[27] = Metabolic stability in human hepatocytes assessed as parent compound remaining at 10 uM incubated for 60 mins by LC-MS/MS analysis
[28] = Stability in rat plasma assessed as parent compound remaining at 10 uM incubated for 60 mins by LC-MS/MS analysis
[29] = Stability in human plasma assessed as parent compound remaining at 10 uM incubated for 60 mins by LC-MS/MS analysis
[30] = Drug concentration in male albino Dunkin-Hartley guinea pig lung at 50 nmol/kg, IT(Intratracheal) measured after 0.083 hrs; details: inhaled or intranasal
[31] = Drug concentration in male albino Dunkin-Hartley guinea pig lung at 50 nmol/kg, IT(Intratracheal) measured after 3 hrs; details: inhaled or intranasal
[32] = Drug concentration in male albino Dunkin-Hartley guinea pig lung at 50 nmol/kg, IT(Intratracheal) measured after 24 hrs; details: inhaled or intranasal
[33] = Stability in guinea pig lung S9 fraction at 1 uM incubated for 60 mins by LC-MS/MS analysis
[34] = in vitro; details: guinea pig, hepatocytes
Description: Metabolic stability in guinea pig hepatocytes assessed as clearance measured per 10^6 cells at 1 uM incubated for 90 mins by LC-MS/MS analysis

[35] = species on record: Cavia porcellus; assay: animal or person; details: albino Dunkin-Hartley, 1 h, read-out: INH; remark: listed apart in the source
Description: Inhibition of acetylcholine induced bronchoconstriction in male albino Dunkin-Hartley guinea pig model at 0.3 nmol/kg, IT(Intratracheal) preadministered with compound followed by acetylcholine addition at 5 to 30 mins in presence of ICI-118551 and measured 1 hrs post compound treatment relative to control

[36] = species on record: Cavia porcellus; assay: animal or person; details: albino Dunkin-Hartley, 1 h, read-out: INH; remark: listed apart in the source
Description: Inhibition of acetylcholine induced bronchoconstriction in male albino Dunkin-Hartley guinea pig model at 1 nmol/kg, IT(Intratracheal) preadministered with compound followed by acetylcholine addition at 5 to 30 mins in presence of ICI-118551 and measured 1 hrs post compound treatment relative to control

[37] = species on record: Cavia porcellus; assay: animal or person; details: albino Dunkin-Hartley, 24 h, read-out: INH
Description: Inhibition of acetylcholine induced bronchoconstriction in male albino Dunkin-Hartley guinea pig model at 1 nmol/kg, IT(Intratracheal) preadministered with compound followed by acetylcholine addition at 5 to 30 mins in presence of ICI-118551 and measured 24 hrs post compound treatment relative to control

[38] = Protein binding in guinea pig plasma at 5 uM incubated for 4 hrs by LC-MS/MS analysis
[39] = system: Cavia porcellus; assay: Inhibition of histamine induced bronchoconstriction in male albino Dunkin-Hartley guinea pig model at 3 nmol/kg, IT(Intratracheal) preadministered with compound followed by histamine addition at 5 to 30 mins and measured 16 hrs post compound treatment relative to control; details: read-out: INH
[40] = system: Cavia porcellus; assay: Inhibition of acetylcholine induced bronchoconstriction in male albino Dunkin-Hartley guinea pig model at 3 nmol/kg, IT(Intratracheal) preadministered with compound followed by acetylcholine addition at 5 to 30 mins and measured 16 hrs post compound treatment relative to control; details: read-out: INH
[41] = species on record: Cavia porcellus; assay: animal or person; details: albino Dunkin-Hartley, 16 h, read-out: INH
Description: Inhibition of acetylcholine induced bronchoconstriction in male albino Dunkin-Hartley guinea pig model at 3 nmol/kg, IT(Intratracheal) preadministered with compound followed by acetylcholine addition at 5 to 30 mins in presence of ICI-118551 and measured 16 hrs post compound treatment relative to control

SMILES | IC50 [1] | IC50 [2] | IC50 [3] | inhibition in vivo at 0.003 µmol/kg [4] | inhibition in vivo at 0.001 µmol/kg [5] | inhibition in vivo at 0.003 µmol/kg [6] | fraction unbound at 4 h, 5 µM [8] | Ki [10] | Ki [11] | half-life at 1 h, 1 µM [12] | hepatocyte CLint at 1.5 h, 1 µM [13] | hepatocyte CLint at 1.5 h, 1 µM [14] | half-life at 1 h, 1 µM [15] | half-life at 1 h, 1 µM [16] | half-life at 2 h, 5 µM [17] | half-life at 2 h, 5 µM [18] | half-life at 2 h, 5 µM [19] | inhibition in vivo at 0.003 µmol/kg [20] | remaining at 1 h, 1 µM [33] | hepatocyte CLint at 1.5 h, 1 µM [34] | also measured
O=C(c1ccc(OCc2ccc(CNC[C@H](O)c3ccc(O)c4[nH]c(=O)ccc34)cc2)cc1)N1CCC(C(=O)OC2CN3CCC2CC3)(c2ccccc2)CC1 (single isomer, unassigned) | 2.51 nM | 0.501 nM | 1 nM | 21% | 60% | 93% | 0.02 | 0.251 nM | 0.2 nM | 3.6 h | 15 µL/min/1e6 cells | 27 µL/min/1e6 cells | 4.67 h | 3.62 h | > 2.5 h | > 2.5 h | 1.82 h | 90% | – | – | inhibition in vivo at 0.003 µmol/kg [7]: 68%; fraction unbound at 4 h, 5 µM [9]: 0.15
O=C(NCCCOc1cccc([C@](O)(C(=O)OCC2CCN(Cc3ccccc3)CC2)c2ccccc2)c1)c1ccc(CNC[C@H](O)c2ccc(O)c3[nH]c(=O)ccc23)cc1 | 0.398 nM | 0.316 nM | 0.501 nM | – | 94% | – | 0.01 | 0.398 nM | 0.1 nM | 0.35 h | 25 µL/min/1e6 cells | 30 µL/min/1e6 cells | 3.22 h | 2.37 h | > 2.5 h | 0.45 h | < 0.0833 h | – | 14% | 316 µL/min/1e6 cells | inhibition in vivo at 0.0003 µmol/kg [21]: 34%; inhibition in vivo at 0.001 µmol/kg [22]: 66%; inhibition in vivo at 0.0003 µmol/kg [23]: 49%; inhibition in vivo at 0.001 µmol/kg [24]: 5%; inhibition in vivo at 0.001 µmol/kg [25]: 95%; remaining at 1 h, 10 µM [26]: 70%; remaining at 1 h, 10 µM [27]: 91%; remaining at 1 h, 10 µM [28]: 67%; remaining at 1 h, 10 µM [29]: > 99%; concentration at 0.083 h [30]: 1270 ng/g; concentration at 3 h [31]: 1160 ng/g; concentration at 24 h [32]: 1170 ng/g; inhibition in vivo at 0.0003 µmol/kg [35]: 23%; inhibition in vivo at 0.001 µmol/kg [36]: 87%; inhibition in vivo at 0.001 µmol/kg [37]: 79%
O=C(NCCCOc1cccc([C@@](O)(C(=O)OCC2CCN(Cc3ccccc3)CC2)c2ccccc2)c1)c1ccc(CNCC(O)c2ccc(O)c3[nH]c(=O)ccc23)cc1 (stereo not given in full) | 10 nM | 0.0501 nM | 0.251 nM | 86% | – | 93% | 0.01 | 10 nM | 0.0501 nM | 4.67 h | 18 µL/min/1e6 cells | 33 µL/min/1e6 cells | 2.3 h | 4.52 h | > 2.5 h | 0.183 h | > 2.5 h | 70% | 91.9% | 41 µL/min/1e6 cells | fraction unbound at 4 h, 5 µM [38]: 0.01; inhibition in vivo at 0.003 µmol/kg [39]: 39%; inhibition in vivo at 0.003 µmol/kg [40]: 56%; inhibition in vivo at 0.003 µmol/kg [41]: 39%
